Data from US9725445B2, “Cycloalkyl nitrile pyrazolo pyridones as Janus kinase inhibitors” (Merck Sharp & Dohme Corp., priority 2013, dated 2017).

Target: JAK2 (Homo sapiens (Human), UniProt O60674)
Assay: Jak biochemical HTRF assay, JAK2
Conditions: HTRF biochemical assay, recombinant GST-tagged catalytic domain; read-out: JAK2 IC50
Procedure: Jak Biochemical HTRF Assay Protocol
The ability of compounds to inhibit the activity of JAK1, JAK2, JAK3, and Tyk2 was measured using a recombinant purified GST-tagged catalytic domain for each enzyme (Invitrogen JAK1 #M4290, JAK2 #M4290, JAK3 #M4290, Tyk2 #M4290) in an HTRF format biochemical assay. […] The basic assay protocol is as follows: First, 250 nL of diluted compounds in DMSO were dispensed into the wells of a dry 384-well Black plate (Greiner #781076) using a Labcyte Echo 555 acoustic dispenser. Subsequent reagent additions employed an Agilent Bravo. […] After equilibration, 2 μL of 10×ATP in 1× assay buffer was added to initiate the kinase reaction and the plates were shaken and then incubated at room temperature for 120 minutes. […] Plates were shaken and centrifuged and then incubated 60 minutes at room temperature and then read on a Perkin Elmer Envision (λex=337 nm, λem=665 and 615 nm, TRF delay time=20 μs). HTRF signal=10,000*665 nm reading/615 nm reading. After normalization to untreated controls, the percent inhibition of the HTRF signal at each compound concentration was calculated. The plot of percent inhibition versus the log of compound concentration was fit with a 4-parameter dose response equation to calculate IC50 values.
Final Reaction Conditions were:
Examples of the instant invention were evaluated in JAK1 and JAK2 in vitro binding assays.

Sequence of JAK2 (O60674 849-1124): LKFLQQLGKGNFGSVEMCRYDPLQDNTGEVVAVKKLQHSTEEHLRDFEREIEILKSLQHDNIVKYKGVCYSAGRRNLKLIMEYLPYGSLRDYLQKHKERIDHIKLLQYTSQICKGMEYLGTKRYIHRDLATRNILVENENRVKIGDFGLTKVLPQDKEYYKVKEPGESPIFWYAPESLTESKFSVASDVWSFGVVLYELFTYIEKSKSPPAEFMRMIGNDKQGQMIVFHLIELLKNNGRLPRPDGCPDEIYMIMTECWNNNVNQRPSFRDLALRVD

IC50	Compound
7.6 nM	CC(O)(CCO)c1cc(Nc2nn([C@H]3CCCC[C@@H]3C#N)c3cc[nH]c(=O)c23)ccc1S(C)(=O)=O (stereo partly drawn) [Example 3-86, (1S,2S)-2-(3-{[3-(1,3-dihydroxy-1-methylpropyl)-4-(methylsulfonyl)phenyl]amino}-4-oxo-4,5-dihydro-1H-pyrazolo[4,3-c]pyridin-1-yl)cyclohexanecarbonitrile]
0.33 nM	CC(C)NC(c1ccc(Nc2nn([C@H]3CCC[C@@H]3C#N)c3cc[nH]c(=O)c23)cc1)C(F)(F)F (single isomer, unassigned) [Example 3-115, (1S,2S)-2-{4-oxo-3-[(4-{(1R or 1S)-2,2,2-trifluoro-1-[(1-methylethyl)amino]ethyl}phenyl)amino]-4,5-dihydro-1H-pyrazolo[4,3-c]pyridin-1-yl}cyclopentanecarbonitrile]
55 nM	C[C@H](N[C@H]1CC[C@H](n2nc(Nc3ccc(Cl)c(F)c3)c3c(=O)[nH]ccc32)[C@@H](C#N)C1)C1CC1 [Example 5-6, (1S,2S,5S)-2-(3-((4-chloro-3-fluorophenyl)amino)-4-oxo-4,5-dihydro-1H-pyrazolo[4,3-c]pyridin-1-yl)-5-(((S)-1-cyclopropylethyl)amino)cyclohexanecarbonitrile]
0.35 nM	CC(O)(c1ccc(Nc2nn([C@H]3CCC[C@@H]3C#N)c3cc[nH]c(=O)c23)cc1)C(F)(F)F (single isomer, unassigned) [Example 3-139, (1S,2S)-2-[4-oxo-3-({4-[(1R or 1S)-2,2,2-trifluoro-1-hydroxy-1-methylethyl]phenyl}amino)-4,5-dihydro-1H-pyrazolo[4,3-c]pyridin-1-yl]cyclopentanecarbonitrile]
0.61 nM	N#C[C@H]1CCCC[C@@H]1n1nc(Nc2ccc(C(O)C(F)F)cc2)c2c(=O)[nH]ccc21 (stereo partly drawn) [Example 3-70, (1S,2S)-2-(3-{[4-(2,2-difluoro-1-hydroxyethyl)phenyl]amino}-4-oxo-4,5-dihydro-1H-pyrazolo[4,3-c]pyridin-1-yl)cyclohexanecarbonitrile]

Target: JAK1 (Homo sapiens (Human), UniProt P23458)
Sequence (P23458 875-1153): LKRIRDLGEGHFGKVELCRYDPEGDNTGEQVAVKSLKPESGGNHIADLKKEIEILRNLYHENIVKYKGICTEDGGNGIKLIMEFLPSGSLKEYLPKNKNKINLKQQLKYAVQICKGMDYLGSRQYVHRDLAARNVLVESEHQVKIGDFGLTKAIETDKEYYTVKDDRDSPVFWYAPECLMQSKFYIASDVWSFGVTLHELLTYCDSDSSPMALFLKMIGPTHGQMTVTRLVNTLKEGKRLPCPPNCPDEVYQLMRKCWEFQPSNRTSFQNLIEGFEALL
Assay: Jak biochemical HTRF assay, JAK1
Conditions: HTRF biochemical assay, recombinant GST-tagged catalytic domain; read-out: JAK1 IC50

Compound	IC50
CC(C)(C)[S@+]([O-])N[C@H](c1ccc(Nc2nn([C@H]3CCCC[C@@H]3C#N)c3cc[nH]c(=O)c23)cc1)C(F)(F)F [Example 3-56, N-{(1R)-1-[4-({1-[(1S,2S)-2-cyanocyclohexyl]-4-oxo-4,5-dihydro-1H-pyrazolo[4,3-c]pyridin-3-yl}amino)phenyl]-2,2,2-trifluoroethyl}-2-methylpropane-2-sulfinamide]	0.31 nM
CC(C)(C)N1Cc2cc(Nc3nn([C@H]4CCCCC[C@@H]4C#N)c4cc[nH]c(=O)c34)ccc2S1(=O)=O (single isomer, unassigned) [Example 3-176, (1S,2S or 1R,2R)-2-{3-[(2-tert-butyl-1,1-dioxido-2,3-dihydro-1,2-benzisothiazol-5-yl)amino]-4-oxo-4,5-dihydro-1H-pyrazolo[4,3-c]pyridin-1-yl}cycloheptanecarbonitrile]	1.9 nM
CC1NCc2cc(Nc3nn([C@H]4CCCC[C@@H]4C#N)c4cc[nH]c(=O)c34)ccc21 (single isomer, unassigned) [Example 12-5, (1S,2S)-2-(3-{[(1R or 1S)-1-methyl-2,3-dihydro-1H-isoindol-5-yl]amino}-4-oxo-4,5-dihydro-1H-pyrazolo[4,3-c]pyridin-1-yl)cyclohexanecarbonitrile]	0.61 nM
C[C@H](N[C@@H]1CC[C@@H](n2nc(Nc3ccc(C(F)(F)F)cc3)c3c(=O)[nH]ccc32)[C@H](C#N)C1)C1CC1 [Example 5-14, (1R,2R,5R)-5-(((S)-1-cyclopropylethyl)amino)-2-(4-oxo-3-((4-(trifluoromethyl)phenyl)amino)-4,5-dihydro-1H-pyrazolo[4,3-c]pyridin-1-yl)cyclohexanecarbonitrile]	9.4 nM
N#C[C@@H]1C[C@@H](O)CC[C@H]1n1nc(Nc2ccc(C(F)(F)F)cc2)c2c(=O)[nH]ccc21 [Example 3-89, (1R,2R,5S)-5-hydroxy-2-(4-oxo-3-((4-(trifluoromethyl)phenyl)amino)-4,5-dihydro-1H-pyrazolo[4,3-c]pyridin-1-yl)cyclohexanecarbonitrile]	9.8 nM
C[C@H](N[C@@H]1CC[C@H](n2nc(Nc3ccc(C(F)(F)F)cc3)c3c(=O)[nH]ccc32)[C@@H](C#N)C1)C1CC1 [Example 5-11, (1S,2S,5R)-5-(((S)-1-cyclopropylethyl)amino)-2-(4-oxo-3-((4-(trifluoromethyl)phenyl)amino)-4,5-dihydro-1H-pyrazolo[4,3-c]pyridin-1-yl)cyclohexanecarbonitrile]	3 nM
N#C[C@H]1CCC[C@@H]1n1nc(Nc2ccc(S(N)(=O)=O)cc2)c2c(=O)[nH]ccc21 [Example 3-99, 4-({1-[(1S,2S)-2-cyanocyclopentyl]-4-oxo-4,5-dihydro-1H-pyrazolo[4,3-c]pyridin-3-yl}amino)benzenesulfonamide]	0.09 nM

Now from value to compound:

IC50	Compound
0.095 nM	N#C[C@H]1CCCC[C@@H]1n1nc(Nc2ccc([C@]3(O)CC[C@@H](C(=O)O)CC3)cc2)c2c(=O)[nH]ccc21 (racemic) [Example 17-1, (1R,4S and 1S,4R)-4-(4-(1-((1S,2S)-2-Cyanocyclohexyl)-4-oxo-4,5-dihydro-1H-pyrazolo[4,3-c]pyridin-3-ylamino)phenyl)-4-hydroxycyclohexanecarboxylic acid]
0.48 nM	CC(c1ccc(Nc2nn([C@H]3CCCC[C@@H]3C#N)c3cc[nH]c(=O)c23)cc1)n1nccn1 (single isomer, unassigned) [Example 15-22, (1S,2S)-2-[4-oxo-3-({4-[(1R or 1S)-1-(2H-1,2,3-triazol-2-yl)ethyl]phenyl}amino)-4,5-dihydro-1H-pyrazolo[4,3-c]pyridin-1-yl]cyclohexanecarbonitrile]
1.2 nM	Cc1cc(Nc2nn([C@H]3CCCC[C@@H]3C#N)c3cc[nH]c(=O)c23)ccc1C(C(C)C)n1nccn1 (single isomer, unassigned) [Example 15-35, (1S,2S)-2-[3-({3-methyl-4-[(1S or 1R)-2-methyl-1-(2H-1,2,3-triazol-2-yl)propyl]phenyl}amino)-4-oxo-4,5-dihydro-1H-pyrazolo[4,3-c]pyridin-1-yl]cyclohexanecarbonitrile]
0.21 nM	CC(c1ccc(Nc2nn([C@H]3CCCC[C@@H]3C#N)c3cc[nH]c(=O)c23)cc1)n1ccnn1 (single isomer, unassigned) [Example 15-41, (1S,2S)-2-[4-oxo-3-({4-[(1R or 1S)-1-(1H-1,2,3-triazol-1-yl)ethyl]phenyl}amino)-4,5-dihydro-1H-pyrazolo[4,3-c]pyridin-1-yl]cyclohexanecarbonitrile]
0.11 nM	N#C[C@H]1CCCC[C@@H]1n1nc(Nc2ccc(C3(C(F)(F)F)CCCN3)cc2)c2c(=O)[nH]ccc21 (single isomer, unassigned) [Example 15-62, (1S,2S)-2-[4-oxo-3-({4-[(2S or 2R)-2-(trifluoromethyl)pyrrolidin-2-yl]phenyl}amino)-4,5-dihydro-1H-pyrazolo[4,3-c]pyridin-1-yl]cyclohexanecarbonitrile]
0.057 nM	N#C[C@H]1CCCC[C@@H]1n1nc(Nc2ccc3c(c2)CN(C2CCOCC2)S3(=O)=O)c2c(=O)[nH]ccc21 [Example 15-44, (1S,2S)-2-(3-{[1,1-dioxido-2-(tetrahydro-2H-pyran-4-yl)-2,3-dihydro-1,2-benzisothiazol-5-yl]amino}-4-oxo-4,5-dihydro-1H-pyrazolo[4,3-c]pyridin-1-yl)cyclohexanecarbonitrile]
